Results from the NIST ThermoML archive (doi:10.1021/acs.jced.9b00334).
Numbers after ± are expanded uncertainties.

Details: Liquid, Vibrating tube method

CCn1cc[n+](C)c1.CCn1cc[n+](C)c1.[Co+2].[N-]=C=S.[N-]=C=S.[N-]=C=S.[N-]=C=S [bis(1-ethyl-3-methylimidazolium) tetrathiocyanatocobaltate]
mass density [kg/m3]
Details | 283.1 K | 293.1 K | 303.1 K | 313.2 K | 323.2 K | 333.2 K | 343.1 K | 353.1 K | 363.1 K
100 kPa | 1286.1 ± 1.5 | 1278.7 ± 1.5 | 1271.5 ± 1.4 | 1264.4 ± 1.4 | 1257.3 ± 1.4 | 1250.3 ± 1.4 | 1243.3 ± 1.4 | 1236.4 ± 1.4 | 1229.5 ± 1.3
1000 kPa | 1286.5 ± 1.5 | 1279.1 ± 1.5 | 1272 ± 1.5 | 1264.9 ± 1.4 | 1257.8 ± 1.4 | 1250.7 ± 1.4 | 1243.7 ± 1.4 | 1236.9 ± 1.4 | 1230.1 ± 1.4
2000 kPa | 1287 ± 1.5 | 1279.6 ± 1.5 | 1272.5 ± 1.5 | 1265.3 ± 1.5 | 1258.4 ± 1.4 | 1251.3 ± 1.4 | 1244.3 ± 1.4 | 1237.5 ± 1.4 | 1230.6 ± 1.4
5000 kPa | 1288.4 ± 1.5 | 1281.1 ± 1.5 | 1273.9 ± 1.5 | 1266.8 ± 1.5 | 1259.9 ± 1.5 | 1253 ± 1.5 | 1246 ± 1.4 | 1239.2 ± 1.4 | 1232.4 ± 1.4
7000 kPa | 1289.3 ± 1.6 | 1282.1 ± 1.6 | 1274.9 ± 1.5 | 1267.9 ± 1.5 | 1260.9 ± 1.5 | 1253.9 ± 1.5 | 1247 ± 1.5 | 1240.3 ± 1.4 | 1233.5 ± 1.4
10000 kPa | 1290.6 ± 1.6 | 1283.4 ± 1.6 | 1276.3 ± 1.6 | 1269.4 ± 1.5 | 1262.5 ± 1.5 | 1255.3 ± 1.5 | 1248.6 ± 1.5 | 1241.7 ± 1.5 | 1235.1 ± 1.5
15000 kPa | 1292.8 ± 1.7 | 1285.7 ± 1.6 | 1278.6 ± 1.6 | 1271.7 ± 1.6 | 1265 ± 1.6 | 1257.9 ± 1.6 | 1251.3 ± 1.5 | 1244.3 ± 1.5 | 1237.7 ± 1.5
20000 kPa | 1295 ± 1.7 | 1287.9 ± 1.7 | 1281 ± 1.7 | 1274.1 ± 1.7 | 1267.3 ± 1.6 | 1260.1 ± 1.6 | 1253.7 ± 1.6 | 1246.9 ± 1.6 | 1240.4 ± 1.6
25000 kPa | 1297.1 ± 1.8 | 1290 ± 1.8 | 1283.1 ± 1.7 | 1276.3 ± 1.7 | 1269.6 ± 1.7 | 1262.7 ± 1.7 | 1256 ± 1.7 | 1249.4 ± 1.6 | 1243 ± 1.6
30000 kPa | 1299.1 ± 1.9 | 1292.1 ± 1.8 | 1285.4 ± 1.8 | 1278.7 ± 1.8 | 1271.9 ± 1.8 | 1265.1 ± 1.7 | 1258.3 ± 1.7 | 1251.9 ± 1.7 | 1245.6 ± 1.7
35000 kPa | 1301.1 ± 1.9 | 1294.3 ± 1.9 | 1287.6 ± 1.9 | 1280.9 ± 1.8 | 1274.1 ± 1.8 | 1267.5 ± 1.8 | 1260.6 ± 1.8 | 1254.3 ± 1.7 | 1248.2 ± 1.7
40000 kPa | 1303.2 ± 2 | 1296.3 ± 2 | 1289.6 ± 1.9 | 1282.9 ± 1.9 | 1276.4 ± 1.9 | 1269.5 ± 1.9 | 1263 ± 1.8 | 1256.7 ± 1.8 | 1250.5 ± 1.8
45000 kPa | 1305.2 ± 2.1 | 1298.4 ± 2 | 1291.7 ± 2 | 1285.1 ± 2 | 1278.6 ± 1.9 | 1272 ± 1.9 | 1265.5 ± 1.9 | 1259.1 ± 1.9 | 1252.7 ± 1.8
50000 kPa | 1307.2 ± 2.1 | 1300.5 ± 2.1 | 1294 ± 2.1 | 1287.4 ± 2 | 1280.8 ± 2 | 1274.2 ± 2 | 1267.7 ± 2 | 1261.2 ± 1.9 | 1254.9 ± 1.9
55000 kPa | 1309 ± 2.2 | 1302.5 ± 2.2 | 1295.9 ± 2.1 | 1289.5 ± 2.1 | 1282.9 ± 2.1 | 1276.4 ± 2 | 1269.6 ± 2 | 1263.6 ± 2 | 1257.2 ± 2
60000 kPa | 1311 ± 2.3 | 1304.3 ± 2.2 | 1297.9 ± 2.2 | 1291.4 ± 2.2 | 1285 ± 2.1 | 1278.4 ± 2.1 | 1271.8 ± 2.1 | 1265.7 ± 2 | 1259.4 ± 2
65000 kPa | 1312.9 ± 2.3 | 1306.3 ± 2.3 | 1299.7 ± 2.3 | 1293.3 ± 2.2 | 1287 ± 2.2 | 1280.4 ± 2.2 | 1274.1 ± 2.1 | 1267.7 ± 2.1 | 1261.6 ± 2.1
70000 kPa | 1314.8 ± 2.4 | 1308.3 ± 2.4 | 1301.7 ± 2.3 | 1295.3 ± 2.3 | 1288.9 ± 2.3 | 1282.4 ± 2.2 | 1275.9 ± 2.2 | 1269.9 ± 2.2 | 1263.7 ± 2.1
75000 kPa | 1316.6 ± 2.5 | 1310.2 ± 2.4 | 1303.7 ± 2.4 | 1297.2 ± 2.4 | 1290.9 ± 2.3 | 1284.6 ± 2.3 | 1277.9 ± 2.3 | 1272 ± 2.2 | 1265.8 ± 2.2
80000 kPa | 1318.3 ± 2.5 | 1312.2 ± 2.5 | 1305.4 ± 2.5 | 1299 ± 2.4 | 1292.8 ± 2.4 | 1286.5 ± 2.4 | 1280.2 ± 2.3 | 1274.2 ± 2.3 | 1267.8 ± 2.3
85000 kPa | 1320 ± 2.6 | 1313.9 ± 2.6 | 1307.4 ± 2.5 | 1301.1 ± 2.5 | 1294.7 ± 2.5 | 1288.6 ± 2.4 | 1282.4 ± 2.4 | 1276.1 ± 2.4 | 1270.1 ± 2.3
90000 kPa | 1321.9 ± 2.7 | 1315.6 ± 2.7 | 1309.4 ± 2.6 | 1302.9 ± 2.6 | 1296.8 ± 2.5 | 1290.4 ± 2.5 | 1284.3 ± 2.5 | 1278.2 ± 2.4 | 1272.1 ± 2.4
95000 kPa | 1323.8 ± 2.8 | 1317.5 ± 2.7 | 1311 ± 2.7 | 1304.8 ± 2.6 | 1298.7 ± 2.6 | 1292.5 ± 2.6 | 1286.1 ± 2.5 | 1280.2 ± 2.5 | 1273.8 ± 2.5
